The IC50 is the concentration that inhibits the measured activity by half. Higher therefore signals a need for much substance.

Each structure is given as a SMILES string. Where a name gives a salt, the structure may show the parent alone.

T1 sequence (P08709 213-466 limits assumed): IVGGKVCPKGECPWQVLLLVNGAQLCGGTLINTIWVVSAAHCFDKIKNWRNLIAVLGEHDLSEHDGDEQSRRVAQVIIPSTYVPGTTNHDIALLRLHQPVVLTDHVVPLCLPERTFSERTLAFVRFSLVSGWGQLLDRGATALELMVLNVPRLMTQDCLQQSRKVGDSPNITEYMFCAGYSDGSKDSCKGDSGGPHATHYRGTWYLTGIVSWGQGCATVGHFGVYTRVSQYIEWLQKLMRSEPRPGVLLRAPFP
T1 sequence (P08709 61-212 limits assumed): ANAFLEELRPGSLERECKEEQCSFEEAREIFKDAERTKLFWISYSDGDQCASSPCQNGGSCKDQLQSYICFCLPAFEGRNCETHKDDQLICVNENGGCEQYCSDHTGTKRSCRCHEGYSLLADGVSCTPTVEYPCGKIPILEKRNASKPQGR
T1 sequence (P13726 33-295 partner): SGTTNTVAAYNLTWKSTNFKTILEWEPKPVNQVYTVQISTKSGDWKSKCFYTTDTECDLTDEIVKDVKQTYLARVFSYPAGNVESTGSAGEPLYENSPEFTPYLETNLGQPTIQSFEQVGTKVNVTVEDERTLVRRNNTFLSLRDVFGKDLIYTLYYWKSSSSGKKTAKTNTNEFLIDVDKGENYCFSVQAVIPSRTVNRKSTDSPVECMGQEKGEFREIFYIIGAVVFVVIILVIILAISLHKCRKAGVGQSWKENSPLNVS

This assay concerns the target T1, human clotting factor VIIa (Homo sapiens, UniProt P08709).
T1 construct: a human clotting factor VIIa (hereinafter, “Factor VIIa”) purified sample; purchased Enzyme Research Laboratories HFVIIa
The assay can be described thus: Inhibitory activity against clotting factor VIIa (chromogenic substrate Spectrozyme FVIIa, TF/Factor VIIa enzyme solution). The assay is classed as biochemical. The settings on record: human Factor VIIa 5 nmol/L with human TF 10 nmol/L, room temperature 40 minutes, 405 nm. Put shortly: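 Human Factor VIIa (5 nmol/L) with human TF (10 nmol/L) in Tris-BSA buffer pH 7.4 containing 15 mmol/L CaCl2 and cephalin, with Spectrozyme FVIIa substrate. Reaction 40 min at room temperature; 4-nitroanilide read at 405 nm. IC50 by non-linear regression over 100 μmol/L–0.1 nmol/L.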
In turn, `COc1cc(OCCCO)cc(C(Nc2ccc(C(=N)N)cc2)c2nn(-c3ncccn3)c(=O)[nH]2)c1` (racemic) [Example 158, 4-({[3-(3-hydroxypropoxy)-5-methoxyphenyl]-(5-oxo-1-pyrimidin-2-yl-4,5-dihydro-1H-[1,2,4]triazol-3-yl)methyl}amino)benzamidine] registered an IC50 of 5.1 nM.

`COc1cc(C(Nc2ccc(C(=N)N)cc2)c2nn(-c3ncccn3)c(=O)[nH]2)ccc1OCF` (racemic) [Example 53, (R) and (S)-4-{[(4-fluoromethoxy-3-methoxyphenyl)-(5-oxo-1-pyrimidin-2-yl-4,5-dihydro-1H-[1,2,4]triazol-3-yl)methyl]amino}benzamidine acetate] registered an IC50 of 10.6 nM.

In the case of `COc1cc(OC)c(F)c(C(Nc2ccc(C(=N)N)cc2)c2nn(-c3ncccn3)c(=O)[nH]2)c1` (racemic) [Example 66, (R) and (S)-4-{[(2-fluoro-3,5-dimethoxyphenyl)-(5-oxo-1-pyrimidin-2-yl-4,5-dihydro-1H-[1,2,4]triazol-3-yl)methyl]amino}benzamidine acetate], the IC50 is 7.9 nM. This IC50 and that of the compound before are within 1.5-fold of each other.

In turn, `COc1cc(OCC(=O)N(C)C)cc(C(Nc2ccc(C(=N)N)cc2)c2nn(-c3ncccn3)c(=O)[nH]2)c1` (racemic) [Example 62, (R) and (S)-2-{3-[(4-carbamimidoylphenylamino)-(5-oxo-1-pyrimidin-2-yl-4,5-dihydro-1H-[1,2,4]triazol-3-yl)methyl]-5-methoxyphenoxy}-N,N-dimethylacetamide acetate] returned an IC50 of 24.4 nM.

`CCOc1cc(C(Nc2ccc(C(=N)N)cc2)c2nn(-c3ncccn3)c(=O)[nH]2)c(F)cc1OC` (racemic) [Example 115, (R) and (S)-4-{[(5-ethoxy-2-fluoro-4-methoxyphenyl)-(5-oxo-1-pyrimidin-2-yl-4,5-dihydro-1H-[1,2,4]triazol-3-yl)methyl]amino}benzamidine acetate]: inhibition was half-maximal at 11.5 nM (IC50). Compared with the last compound, the IC50 is about 2.1-fold lower.

`COCCOc1cc(OC)cc(C(Nc2ccc(C(=N)N)cc2)c2nn(-c3ncccn3)c(=O)[nH]2)c1` (racemic) [Example 6, (R) and (S)-4-({[3-methoxy-5-(2-methoxyethoxy)phenyl]-(5-oxo-1-pyrimidin-2-yl-4,5-dihydro-1H-[1,2,4]triazol-3-yl)methyl}amino)benzamidine acetate]: the half-inhibitory concentration (IC50) turned out to be 10.3 nM.

Turning to `COc1cc(C(Nc2ccc(C(=N)N)cc2)c2nn(-c3ncccn3)c(=O)[nH]2)c(F)c(OC)c1OC` (racemic) [Example 67, (R) and (S)-4-{[(2-fluoro-3,4,5-trimethoxyphenyl)-(5-oxo-1-pyrimidin-2-yl-4,5-dihydro-1H-[1,2,4]triazol-3-yl)methyl]amino}benzamidine acetate], inhibition was half-maximal at 4.5 nM (IC50). This IC50 is about 2.3-fold lower than that of the compound before.

`COc1cc(C(Nc2ccc(C(=N)N)cc2)c2nn(-c3ccccc3C(=O)O)c(=O)[nH]2)cc(C)n1` (racemic) [Example 38, (R) and (S)-2-{3-[(4-carbamimidoylphenylamino)-(2-methoxy-6-methylpyridin-4-yl)methyl]-5-oxo-4,5-dihydro-[1,2,4]triazol-1-yl}benzoic acid acetate] came in with an IC50 of 7.4 nM.

In turn, `Cc1cc(OCC(=O)N(C)C)cc(C(Nc2ccc(C(=N)N)cc2)c2nn(-c3ncccn3)c(=O)[nH]2)c1` (racemic) [Example 44, (R) and (S)-2-{3-[(4-carbamimidoylphenylamino)-(5-oxo-1-pyrimidin-2-yl-4,5-dihydro-1H-[1,2,4]triazol-3-yl)methyl]-5-methylphenoxy}-N,N-dimethylacetamide acetate] showed an IC50 of 25.7 nM.

With `COc1cc(C(Nc2ccc(C(=N)N)cc2)c2nn(-c3cccnn3)c(=O)[nH]2)cc(OC)c1OC` (racemic) [Example 88, 4-{[(R) and (S)-(5-oxo-1-pyridazin-3-yl-4,5-dihydro-1H-[1,2,4]triazol-3-yl)-(3,4,5-trimethoxyphenyl)methyl]amino}benzamidine trifluoroacetate], the 50% inhibitory concentration (IC50) is 8.5 nM. This IC50 lies about 3-fold lower than the previous one.

`COc1cc(C(Nc2ccc(C(=N)N)cc2)c2nn(-c3ncccc3N)c(=O)[nH]2)c(F)c2c1OCCC2` (stereo not shown) [Example 209, 4-{[[1-(3-Aminopyridin-2-yl)-5-oxo-4,5-dihydro-1H-[1,2,4]triazol-3-yl]-(5-fluoro-8-methoxychroman-6-yl)methyl]amino}benzamidine trifluoroacetate] displayed a 50% inhibitory concentration (IC50) of 4 nM.

With `COc1ccc(C(Nc2ccc(C(=N)N)cc2)c2nn(-c3ncsc3C(=O)O)c(=O)[nH]2)cc1OC` (racemic) [Example 193, (R) and (S)-4-{3-[(4-Carbamimidoylphenylamino)-(3,4-dimethoxyphenyl)methyl]-5-oxo-4,5-dihydro-[1,2,4]triazol-1-yl}-thiazole-5-carboxylic acid], the IC50 is 15.7 nM.

For the compound `COc1cc(OCCCO)c(F)c(C(Nc2ccc(C(=N)N)cc2)c2nn(-c3ncsc3C(=O)O)c(=O)[nH]2)c1` (racemic) [Example 163, (R) and (S)-4-(3-{(4-carbamimidoylphenylamino)-[2-fluoro-3-(3-hydroxypropoxy)-5-methoxyphenyl]methyl}-5-oxo-4,5-dihydro-[1,2,4]triazol-1-yl)thiazole-5-carboxylic acid], inhibition was half-maximal at 10.5 nM (IC50).

With `CCOc1cc(OCCO)c(F)c(C(Nc2ccc(C(=N)N)cc2)c2nn(-c3ncccn3)c(=O)[nH]2)c1` (racemic) [Example 219, (R) and (S)-4-{[[5-Ethoxy-2-fluoro-3-(2-hydroxyethoxy)phenyl]-(5-oxo-1-pyrimidin-2-yl-4,5-dihydro-1H-[1,2,4]triazol-3-yl)methyl]amino}benzamidine acetate], half-maximal inhibition (IC50) was put at 9.5 nM.

Turning to `CCc1cc(OCCN(C)C)c(F)c(C(Nc2ccc(C(=N)N)cc2)c2nn(-c3ccccc3N)c(=O)[nH]2)c1` (stereo not shown) [Example 139, 4-({[1-(2-aminophenyl)-5-oxo-4,5-dihydro-1H-[1,2,4]triazol-3-yl]-[3-(2-dimethylaminoethoxy)-5-ethyl-2-fluorophenyl]methyl}amino)benzamidine bistrifluoroacetate], the IC50 turned out to be 3.8 nM.

`CCOc1cc(C(Nc2ccc(C(=N)N)cc2)c2nn(-c3ncccn3)c(=O)[nH]2)ccc1OCC#N` (stereo not shown) [Example 114, 4-{[(4-cyanomethoxy-3-ethoxyphenyl)-(5-oxo-1-pyrimidin-2-yl-4,5-dihydro-1H-[1,2,4]triazol-3-yl)methyl]amino}benzamidine trifluoroacetate] had a half-maximal inhibitory concentration (IC50) of 22.8 nM.

Turning to `COc1cc(OCCF)c(F)c(C(Nc2ccc(C(=N)N)cc2)c2nn(-c3cccnn3)c(=O)[nH]2)c1` (racemic) [Example 151, (R) and (S)-4-{[(2-fluoro-3-(2-fluoroethoxy)-5-methoxyphenyl)-(5-oxo-1-pyridazin-3-yl-4,5-dihydro-1H-[1,2,4]triazol-3-yl)methyl]amino}benzamidine acetate], the half-inhibitory concentration (IC50) turned out to be 5.4 nM.

`COc1cc(OCC(F)F)c(F)c(C(Nc2ccc(C(=N)N)cc2)c2nn(-c3ncccn3)c(=O)[nH]2)c1` (racemic) [Example 99, 4-{[(R) and (S)-[3-(2,2-difluoroethoxy)-2-fluoro-5-methoxyphenyl]-(5-oxo-1-pyrimidin-2-yl-4,5-dihydro-1H-[1,2,4]triazol-3-yl)methyl]amino}benzamidine acetate] returned a concentration for half-maximal inhibition (IC50) of 3.9 nM.

In the case of `COc1cc(C(Nc2ccc(C(=N)N)cc2)c2nn(-c3ncccn3)c(=O)[nH]2)cc(CO)c1OC` (stereo not shown) [Example 23, 4-{[(5-hydroxymethyl-3,4-dimethoxyphenyl)-(5-oxo-1-pyrimidin-2-yl-4,5-dihydro-1H-[1,2,4]triazol-3-yl)methyl]amino}benzamidine acetate], the IC50 stood at 23.9 nM.

In turn, `COc1cc(C(Nc2ccc(C(=N)N)cc2)c2nn(-c3ccsc3C(=O)O)c(=O)[nH]2)cc(OC)c1OC` (racemic) [Example 227, 3-{3-[(R) and (S)-(4-Carbamimidoylphenylamino)-(3,4,5-trimethoxyphenyl)methyl]-5-oxo-4,5-dihydro-[1,2,4]triazol-1-yl}thiophene-2-carboxylic acid] had a concentration for half-maximal inhibition (IC50) of 4.5 nM.

With `CCc1cc(OCC#N)cc(C(Nc2ccc(C(=N)N)cc2)c2nn(-c3ncccn3)c(=O)[nH]2)c1` (stereo not shown) [Example 77, 4-{[(3-cyanomethoxy-5-ethylphenyl)-(5-oxo-1-pyrimidin-2-yl-4,5-dihydro-1H-[1,2,4]triazol-3-yl)methyl]amino}benzamidine acetate], it took 8.8 nM to reach half-maximal inhibition (IC50). Compared with the last compound, the IC50 is about 2-fold higher.

`COc1cnc(C(Nc2ccc(C(=N)N)cc2)c2nn(-c3ccsc3C(=O)O)c(=O)[nH]2)cc1OC` (racemic) [Example 170, 3-{3-[(R) and (S)-(4-carbamimidoylphenylamino)-(4,5-dimethoxypyridin-2-yl)methyl]-5-oxo-4,5-dihydro-[1,2,4]triazol-1-yl}thiophene-2-carboxylic acid] showed an IC50 of 8 nM.

As to `CCOc1cc(C(Nc2ccc(C(=N)N)cc2)c2nn(-c3ncccc3OC)c(=O)[nH]2)ccc1OCC(=O)NC` (stereo not shown) [Example 126, 2-(4-{(4-carbamimidoylphenylamino)-[1-(3-methoxypyridin-2-yl)-5-oxo-4,5-dihydro-1H-[1,2,4]triazol-3-yl]methyl}-2-ethoxyphenoxy)-N-methyl-acetamide acetate], the IC50 is 10.9 nM. This IC50 and that of the compound before are within 1.5-fold of each other.

`COCc1cc(C(Nc2ccc(C(=N)N)cc2)c2nn(-c3ncccn3)c(=O)[nH]2)cc(OC)c1OC` (racemic) [Example 22, (R) and (S)-4-{[(3,4-dimethoxy-5-methoxymethyl-phenyl)-(5-oxo-1-pyrimidin-2-yl-4,5-dihydro-1H-[1,2,4]triazol-3-yl)methyl]amino}benzamidine acetate] had an IC50 of 8.3 nM. The IC50 values of the last two compounds are within 1.5-fold of each other.

As to `COc1cc(OCCO)cc(C(Nc2ccc(C(=N)N)cc2)c2nn(-c3ncccc3N)c(=O)[nH]2)c1` (stereo not shown) [Example 207, 4-({[1-(3-Aminopyridin-2-yl)-5-oxo-4,5-dihydro-1H-[1,2,4]triazol-3-yl]-[3-(2-hydroxyethoxy)-5-methoxyphenyl]methyl}amino)benzamidine acetate], 19.9 nM corresponded to half-maximal inhibition (IC50).

Source of the values: US7816522B2, “Triazolone derivatives” (Eisai Co., Ltd., priority 2006, dated 2010).
